# Experiments:
# Format in all cases: in vivo, human
# [1] = tested on: Subjects Having Insomnia Disorder; experiment: Example 1: Morning Sleepiness rating (scale 1 to 9); settings: for Morning Sleepiness score, Mean (SD): Baseline; for Morning Sleepiness score, Treatment difference (vs placebo): change from baseline at Month 6
# Description: In some embodiments, sleep diaries were used to assess sleep parameters reported by subjects (i.e., subjective assessments) including subjective sleep onset latency (sSOL), subjective sleep efficiency (sSE), subjective WASO (sWASO), and subjective total sleep time (sTST). Subjects were instructed to complete the Sleep Diary developed based on the consensus Sleep Diary as described in Carney et al., “The consensus sleep diary: standardizing prospective sleep self-monitoring,” Sleep 2012; 35(2):287-302. In some embodiments, the Sleep Diary was used to assess the subject's global perception of quality of sleep on the previous night with the following question: “How would you rate the quality of your sleep last night?” Subjects rated the quality of their sleep on a scale from 1 to 9, with 1 being extremely poor and 9 being extremely good. In some embodiments, the Sleep Diary was used to assess subjective ratings of morning sleepiness with the following question: “How alert/sleepy do you feel this morning?” Subjects rated their sleepiness/alertness level on a Likert scale from 1 to 9, with 1 being extremely sleepy and 9 being extremely alert.
# Treatment period 1 began with the first dose of randomized study medication (placebo, 5 mg of lemborexant, or 10 mg of lemborexant). Subjects completed sleep diaries daily in the morning, within one hour of waketime. The subjects were assessed by a clinician one month, two months, three months, and six months after initiation of Treatment period 1.
# [2] = tested on: Subjects Having Insomnia Disorder; experiment: Example 1: Insomnia Severity Index Total Score (Items 1-7)
# Description: As used herein, the term “Insomnia Severity Index”, abbreviated as “ISI”, is an index calculated using a 7-item, self-report questionnaire assessing the nature, severity, and impact of insomnia (see Bastien, C. H., et al. “Validation of the Insomnia Severity Index as an outcome measure for insomnia research.” Sleep Med. 2001; 2(4): 297-307). The questionnaire evaluates: (1) severity of sleep onset; (2) sleep maintenance; (3) early morning awakening problems; (4) sleep dissatisfaction; (5) interference caused by sleep difficulties with daytime functioning; (6) noticeability of sleep problems by others; and (7) distress caused by the sleep difficulties. A 5-point scale is used to rate each item (0=no problem to 4=very severe problem) yielding a total score from 0 to 28. Total ISI score (items (1)-(7)) and daytime functioning (items (4)-(7)) are analyzed separately.
# Month 1 Assessment: Standard safety assessments were performed on the subject. A blood sample was collected for determination of plasma concentration of lemborexant and its metabolites, and the ISI, FSS, PGI-Insomnia, EQ-5D-3L, and eC-SSR were completed.
# Month 3 Assessment: All assessments conducted at the Month 1 Assessment were repeated.
# Month 6 Assessment: All assessments conducted at the Month 1 Assessment were repeated, and subjects completed the WPAI-GH.
# [3] = tested on: Subjects Having Insomnia Disorder; experiment: Example 3: proportion of subjects whose ISI Total Score decreased by 7 or more points (pooled); settings: for percentage of subjects whose ISI Total Score decreased by 7 or more points: end of month 1, pooled Examples 1 and 2; for Total Insomnia Severity Index Score Decreased by ≥7 Points, Difference of proportion vs. Placebo / Total Insomnia Severity Index Score Decreased from Baseline to Month 1 by ≥7 Points, Responder No, n (%) / Total Insomnia Severity Index Score Decreased from Baseline to Month 1 by ≥7 Points, Responder Yes, n (%): Month 1
# Procedure: The data collected in studies described in Example 1 and Example 2 were pooled and the response of each subject was analyzed.
# Table 32 provides the summary and analysis of responders, defined as those subjects whose Total ISI Score decreased at the end of month 1 by 7 or more points compared to baseline. Table 33 provides the summary and analysis of responders, defined as those subjects whose ISI Total Score decreased compared to baseline and was less than 10 at month 1.
compound,measurement,setting,value
"Cc1ncc(OC[C@@]2(c3cccc(F)c3)C[C@H]2C(=O)Nc2ccc(F)cn2)c(C)n1 [Lemborexant, (1R,2S)-2-(((2,4-dimethylpyrimidin-5-yl)oxy)methyl)-2-(3-fluorophenyl)-N-(5-fluoropyridin-2-yl)cyclopropanecarboxamide]","Morning Sleepiness score, Mean (SD)",[1]; 5 mg,3.93 (1.35)
same,"Morning Sleepiness score, Treatment difference (vs placebo)",[1]; 5 mg,0.15
same,"Morning Sleepiness score, Mean (SD)",[1]; 10 mg,3.93 (1.32)
same,"Morning Sleepiness score, Treatment difference (vs placebo)",[1]; 10 mg,0.26
same,morning sleepiness compared with placebo,[1]; at 6 months (Table 8),significantly improved
same,insomnia severity index score compared with placebo,"[2]; 5 mg and 10 mg, at the equivalent timepoint (Tables 6 and 7: daytime functioning and total score)",greater decrease in insomnia severity index score than subjects treated with placebo
same,"ISI Total Score (Items 1-7), Mean","[2]; 5 mg, Month 1",12.6
same,"ISI Total Score (Items 1-7), Median","[2]; 5 mg, Month 1",12.0
same,"ISI Total Score (Items 1-7), Mean","[2]; 5 mg, Month 3",10.8
same,"ISI Total Score (Items 1-7), Median","[2]; 5 mg, Month 3",10.0
same,"ISI Total Score (Items 1-7), Mean","[2]; 5 mg, Month 6",9.6
same,"ISI Total Score (Items 1-7), Median","[2]; 5 mg, Month 6",9.0
same,"ISI Total Score (Items 1-7), Mean","[2]; 5 mg, Study Baseline",19.6
same,"ISI Total Score (Items 1-7), Median","[2]; 5 mg, Study Baseline",19.0
same,"ISI Total Score Change from Study Baseline, Mean","[2]; 5 mg, after 1 Month",−7.1
same,"ISI Total Score Change from Study Baseline, Median","[2]; 5 mg, after 1 Month",−6.0
same,"ISI Total Score Change from Study Baseline, Mean","[2]; 5 mg, after 3 Months",−8.6
same,"ISI Total Score Change from Study Baseline, Median","[2]; 5 mg, after 3 Months",−8.0
same,"ISI Total Score Change from Study Baseline, Mean","[2]; 5 mg, after 6 Months",−9.9
same,"ISI Total Score Change from Study Baseline, Median","[2]; 5 mg, after 6 Months",−10.0
same,ISI Total Score LSM treatment difference: Lemborexant/Placebo,"[2]; 5 mg, change from Study Baseline after 1 Month",−1.47
same,ISI Total Score LSM treatment difference: Lemborexant/Placebo,"[2]; 5 mg, change from Study Baseline after 3 Months",−2.02
same,ISI Total Score LSM treatment difference: Lemborexant/Placebo,"[2]; 5 mg, change from Study Baseline after 6 Months",−2.10
same,"ISI Total Score (Items 1-7), Mean","[2]; 10 mg, Month 1",12.0
same,"ISI Total Score (Items 1-7), Median","[2]; 10 mg, Month 1",12.0
same,"ISI Total Score (Items 1-7), Mean","[2]; 10 mg, Month 3",10.2
same,"ISI Total Score (Items 1-7), Median","[2]; 10 mg, Month 3",10.0
same,"ISI Total Score (Items 1-7), Mean","[2]; 10 mg, Month 6",9.4
same,"ISI Total Score (Items 1-7), Median","[2]; 10 mg, Month 6",9.0
same,"ISI Total Score (Items 1-7), Mean","[2]; 10 mg, Study Baseline",19.0
same,"ISI Total Score (Items 1-7), Median","[2]; 10 mg, Study Baseline",19.0
same,"ISI Total Score Change from Study Baseline, Mean","[2]; 10 mg, after 1 Month",−7.2
same,"ISI Total Score Change from Study Baseline, Median","[2]; 10 mg, after 1 Month",−6.0
same,"ISI Total Score Change from Study Baseline, Mean","[2]; 10 mg, after 3 Months",−8.9
same,"ISI Total Score Change from Study Baseline, Median","[2]; 10 mg, after 3 Months",−9.0
same,"ISI Total Score Change from Study Baseline, Mean","[2]; 10 mg, after 6 Months",−9.8
same,"ISI Total Score Change from Study Baseline, Median","[2]; 10 mg, after 6 Months",−9.5
same,ISI Total Score LSM treatment difference: Lemborexant/Placebo,"[2]; 10 mg, change from Study Baseline after 1 Month",−1.87
same,ISI Total Score LSM treatment difference: Lemborexant/Placebo,"[2]; 10 mg, change from Study Baseline after 3 Months",−2.57
same,ISI Total Score LSM treatment difference: Lemborexant/Placebo,"[2]; 10 mg, change from Study Baseline after 6 Months",−2.35
same,percentage of subjects whose ISI Total Score decreased by 7 or more points,[3]; 5 mg,47.3%
same,percentage of subjects whose ISI Total Score decreased by 7 or more points,[3]; 10 mg,47.8%
same,"Total Insomnia Severity Index Score Decreased by ≥7 Points, Difference of proportion vs. Placebo",[3]; Lemborexant 5 mg,13.12
same,"Total Insomnia Severity Index Score Decreased from Baseline to Month 1 by ≥7 Points, Responder No, n (%)",[3]; Lemborexant 5 mg,283 (48.6) n (%)
same,"Total Insomnia Severity Index Score Decreased from Baseline to Month 1 by ≥7 Points, Responder Yes, n (%)",[3]; Lemborexant 5 mg,275 (47.3) n (%)
same,"Total Insomnia Severity Index Score Decreased by ≥7 Points, Difference of proportion vs. Placebo",[3]; Lemborexant 10 mg,13.61
same,"Total Insomnia Severity Index Score Decreased from Baseline to Month 1 by ≥7 Points, Responder No, n (%)",[3]; Lemborexant 10 mg,261 (44.7) n (%)
same,"Total Insomnia Severity Index Score Decreased from Baseline to Month 1 by ≥7 Points, Responder Yes, n (%)",[3]; Lemborexant 10 mg,279 (47.8) n (%)
same,difference of proportion of responders (ISI Total Score decreased by 7 or more points) versus placebo,"[3]; both doses, month 1 (Table 32)",statistically significant
